Measured values as given in US20220204497A1, “NOVEL COMPOUND HAVING ANTICANCER ACTIVITY, AND METHOD FOR PRODUCING SAME” (MEDICINAL BIOCONVERGENCE RESEARCH CENTER, priority 2019, published 2022).

System: A549 cells
Assay: Cell viability by MTT method in A549 cells
Type: cell-based
Set-up: concentration or dose not given beside the values
Settings: 72 hours treatment

Row | Compound | Cell Viability (% inhibition) (A549) [%]
1 | CSCC[C@H](NS(=O)(=O)c1ccc(C)cc1)C(=O)Nc1ccc(N2CCOCC2)cc1 [Compound 45, (S)-2-(4-methylphenylsulfonamido)-4-(methylthio)-N-(4-morpholinophenyl)butanamide] | 12.97 ± 1.24
2 | Cc1ccc(S(=O)(=O)N[C@@H](Cc2ccccc2)C(=O)Nc2ccc(N3CCOCC3)cc2)cc1 [Compound 48, (S)-2-(4-methylphenylsulfonamido)-N-(4-morpholinophenyl)-3-phenylpropanamide] | 45.68 ± 2.92
3 | COc1ccc(-c2csc(NC(=O)[C@H](Cc3c[nH]c4ccccc34)NS(=O)(=O)c3ccc(Br)cc3)n2)cc1 [Compound 62, (S)-2-(4-Bromophenylsulfonamido)-3-(1H-indol-3-yl)-N-(4-(4-methoxyphenyl)thiazol-2-yl)propanamide] | 90.17 ± 0.96
4 | Cc1ccccc1S(=O)(=O)N[C@@H](Cc1c[nH]c2ccccc12)C(=O)Nc1ccc(N2CCOCC2)cc1 [Compound 64, (S)-3-(1H-indol-3-yl)-2-(2-methylphenylsulfonamido)-N-(4-morpholinophenyl)propanamide] | 51.75 ± 1.56
5 | Cc1cccc(S(=O)(=O)N[C@@H](Cc2c[nH]c3ccccc23)C(=O)Nc2ccc(N3CCOCC3)cc2)c1 [Compound 65, (S)-3-(1H-indol-3-yl)-2-(3-methylphenylsulfonamido)-N-(4-morpholinophenyl)propanamide] | 74.94 ± 1.04
6 | Cc1ccc(S(=O)(=O)N[C@H](Cc2c[nH]c3ccccc23)C(=O)Nc2ccc(N3CCOCC3)cc2)cc1 [Compound 76, (R)-3-(1H-indol-3-yl)-2-(4-methylphenylsulfonamido)-N-(4-morpholinophenyl)propanamide] | 63.47 ± 0.82
7 | COC[C@H](C)Oc1ccc(-c2csc(NC(=O)[C@H](CC(C)C)NS(=O)(=O)c3ccc(C)cc3)n2)cc1 [Compound 98, (S)—N-(4-(4((S)-1-methoxypropan-2-yloxy)phenyl)thiazol-2-yl)-4-methyl-2-(4-methylphenylsulfonamido)pentanamide] | 76.55 ± 1.52
8 | Cc1ccc(S(=O)(=O)N[C@@H](CC(C)C)C(=O)Nc2nc(-c3ccc(N4CCOCC4)cc3)cs2)cc1 [Compound 99, (S)-4-Methyl-2-(4-methylphenylsulfonamido)-N-(4-(4-morpholinophenyl)thiazol-2-yl)pentanamide] | 73.11 ± 3.83
9 | COC(=O)c1ccc(-c2csc(NC(=O)[C@H](CC(C)C)NS(=O)(=O)c3ccc(C)cc3)n2)cc1 [Compound 100, (S)-Methyl 4-(2-(4-methyl-2-(4-methylphenylsulfonamido)pentanamido)thiazol-4-yl)benzoate] | 79.24 ± 1
10 | COc1ccc(-c2csc(NC(=O)[C@H](Cc3c[nH]c4ccccc34)NS(=O)(=O)c3ccc(Br)cc3)n2)c(OC)c1 [Compound 108, (S)-2-(4-Bromophenylsulfonamido)-N-(4-(2,4-dimethoxyphenyl)thiazol-2-yl)-3-(1H-indol-3-yl)propanamide] | 9.05 ± 7.51
11 | Cc1ccc(S(=O)(=O)N[C@@H](Cc2cn(C=O)c3ccccc23)C(=O)Nc2ccc(N3CCOCC3)cc2)cc1 [Compound 125, (S)-3-(1-Formyl-1H-indol-3-yl)-2-(4-methylphenylsulfonamido)-N-(4-morpholinophenyl)propanamide] | 49.76 ± 2.98
12 | COc1ccc(-c2cc(NC(=O)[C@H](Cc3c[nH]c4ccccc34)NS(=O)(=O)c3ccc(C)cc3)on2)cc1 [Compound 126, (S)-3-(1H-indol-3-yl)-N-(3-(4-methoxyphenyl)isoxazol-5-yl)-2-(4-methylphenylsulfonamido)propanamide] | 85.53 ± 0.66
13 | Cc1ccc(S(=O)(=O)N[C@@H](CO)C(=O)Nc2ccc(N3CCOCC3)cc2)cc1 [Compound 130, (S)-3-Hydroxy-2-(4-methylphenylsulfonamido)-N-(4-morpholinophenyl)propanamide] | 16.62 ± 10.08
14 | Cc1ccc(S(=O)(=O)N[C@H](C(=O)Nc2ccc(N3CCOCC3)cc2)C(C)C)cc1 [Compound 131, (S)-3-Methyl-2-(4-methylphenylsulfonamido)-N-(4-morpholinophenyl)butanamide] | 5.78 ± 7.70
15 | O=C(Nc1ccccc1)N[C@@H](Cc1c[nH]c2ccccc12)C(=O)N1CCOCC1 [Compound 132, (S)-1-(3-(1H-indol-3-yl)-1-morpholino-1-oxopropan-2-yl)-3-phenylurea] | −11.18 ± 5.31
16 | Cc1ccc(S(=O)(=O)N[C@@H](Cc2c[nH]c3ccccc23)C(=O)Nc2ccc(N3CCOCC3)nc2)cc1 [Compound 133, (S)-3-(1H-indol-3-yl)-2-(4-methylphenylsulfonamido)-N-(6-morpholinopyridin-3-yl)propanamide] | 6.18 ± 6.05

Row | Compound | Cell Viability (% inhibition) (A549) [%]
17 | N#Cc1ccc(S(=O)(=O)N[C@@H](Cc2c[nH]c3ccccc23)C(=O)Nc2ccc(N3CCOCC3)cc2)cc1 [Compound 135, (S)-2-(4-Cyanophenylsulfonamido)-3-(1H-indol-3-yl)-N-(4-morpholinophenyl)propanamide] | 55.02 ± 1.06
18 | O=C(Nc1ccc(N2CCOCC2)cc1)[C@H](Cc1c[nH]c2ccccc12)NS(=O)(=O)c1ccc(C(F)(F)F)nc1 [Compound 136, (S)-3-(1H-indol-3-yl)-N-(4-morpholinophenyl)-2-(6-(trifluoromethyl)pyridine-3-sulfonamido)propanamide] | 87.12 ± 2.3
19 | COC(=O)CC[C@@H](C(=O)Nc1ccc(N2CCOCC2)cc1)N(C)S(=O)(=O)c1ccccc1 [Compound 137, (S)-Methyl 4-(methylphenylsulfonamido)-5-(4-morpholinophenylamino)-5-oxopentanoate] | 17.75 ± 5.15
20 | Cc1ccc(S(=O)(=O)N[C@@H](Cn2cnc3ccccc32)C(=O)Nc2ccc(N3CCOCC3)cc2)cc1 [Compound 138, (S)-3-(1H-benzo[d]imidazol-1-yl)-2-(4-methylphenylsulfonamido)-N-(4-morpholinophenyl)propanamide] | 14.63 ± 1.98
21 | Cc1ccc(S(=O)(=O)N[C@H](Cn2c(=O)c(=O)[nH]c3ccccc32)C(=O)Nc2ccc(N3CCOCC3)cc2)cc1 [Compound 139, (R)-3-(2,3-dioxo-3,4-dihydroquinoxalin-1(2H)-yl)-2-(4-methylphenylsulfonamido)-N-(4-morpholinophenyl)propanamide] | 9.99 ± 0.24
22 | Cc1ccc(S(=O)(=O)N[C@@H](CCCCNC(=O)c2ccc(C(F)(F)F)cn2)C(=O)Nc2ccc(N3CCOCC3)cc2)cc1 [Compound 140, (S)—N-(5-(4-methylphenylsulfonamido)-6-(4-morpholinophenylamino)-6-oxohexyl)-5-(trifluoromethyl)picolinamide] | 86.68 ± 1.25
23 | Cc1ccc(S(=O)(=O)N[C@@H](CCC(=O)OCc2ccccc2)C(=O)Nc2ccc(N3CCOCC3)cc2)cc1 [Compound 141, (S)-Benzyl 4-(4-methylphenylsulfonamido)-5-(4-morpholinophenylamino)-5-oxopentanoate] | 40.15 ± 6.15
24 | Cc1ccc(S(=O)(=O)N[C@@H](CC(=O)OCc2ccccc2)C(=O)Nc2ccc(N3CCOCC3)cc2)cc1 [Compound 142, (S)-Benzyl 3-(4-methylphenylsulfonamido)-4-(4-morpholinophenylamino)-4-oxobutanoate] | 15.9 ± 4.84
25 | CC(C)C[C@H](NS(=O)(=O)c1ccc(C(=O)O)cc1)C(=O)N1CCOCCOCCOCC1 [Compound 157, (S)-4-(N-(4-methyl-1-oxo-1-(1,4,7-trioxa-10-azacyclododecan-10-yl)pentan-2-yl)sulfamoyl)benzoic acid] | 64.40 ± 2.96
26 | Cc1ccc(S(=O)(=O)N[C@@H](Cc2c[nH]c3ccccc23)C(=O)NNC(=O)c2ccc(N3CCOCC3)cc2)cc1 [Compound 163, (S)—N-(3-(1H-indol-3-yl)-1-(2-(4-morpholinobenzoyl)hydrazinyl)-1-oxopropan-2-yl)-4-methylbenzenesulfonamide] | 18.63 ± 9.48
27 | Cc1ccc(S(=O)(=O)N[C@@H](Cc2c[nH]c3ccccc23)C(=O)Nc2nc(-c3ccc(N4CCOCC4)cc3)cs2)cc1 [Compound 164, (S)-3-(1-indol-3-yl)-2-(4-methylphenylsulfonamido)-N-(4-(4-morpholinophenyl)thiazol-2-yl)propanamide] | 88.05 ± 0.8
28 | COC(=O)c1ccc(-c2csc(NC(=O)[C@H](Cc3c[nH]c4ccccc34)NS(=O)(=O)c3ccc(C)cc3)n2)cc1 [Compound 165, (S)-Methyl 4-(2-(3-(1H-indol-3-yl)-2-(4-methylphenylsulfonamido)propanamido)thiazol-4-yl)benzoate] | 78.22 ± 0.97
29 | O=C(OCc1ccccc1)[C@H](Cc1c[nH]c2ccccc12)NS(=O)(=O)c1ccc(C(F)(F)F)nc1 [Compound 166, (S)-Benzyl 3-(1H-indol-3-yl)-2-(6-(trifluoromethyl)pyridine-3-sulfonamido)propanoate] | 97.48 ± 1
30 | Cc1ccc(S(=O)(=O)N[C@@H](CCC(=O)Nc2ccc([N+](=O)[O-])cc2)C(=O)Nc2ccc(N3CCOCC3)cc2)cc1 [Compound 167, (S)-2-(4-Methylphenylsulfonamido)-N^1-(morpholinophenyl)-N^5-(4-nitrophenyl)pentanediamide] | 85.33 ± 1.28
31 | Cc1ccc(S(=O)(=O)N[C@@H](CCCCNC(=O)OCc2ccccc2)C(=O)Nc2ccc(N3CCOCC3)cc2)cc1 [Compound 168, (S)-Benzyl 5-(4-methylphenylsulfonamido)-6-(4-morpholinophenylamino)-6-oxohexylcarbamate] | 84.11 ± 1.25
